This is an account of results in US20150376198A1, “MODULATORS OF VASOPRESSIN RECEPTORS WITH THERAPEUTIC POTENTIAL” (priority 2013, published 2015).

Where two headings read alike, the source gives them in different places. Some results are limits rather than exact numbers.

For one test, the target named is V2 receptor (Homo sapiens, UniProt P30518). The experiment in a line: V2 receptor binding (primary binding at 10 μM and Ki). To be noted: for inhibition at 10 µM: read-out: V2 binding, mean % inhibition. On the procedure: (§1) Data represent Ki values (nM) or mean % inhibition (indicated as %) for exemplary compounds of formula (I) tested versus receptor subtypes.
V2 receptor, sequence (P30518 whole entry): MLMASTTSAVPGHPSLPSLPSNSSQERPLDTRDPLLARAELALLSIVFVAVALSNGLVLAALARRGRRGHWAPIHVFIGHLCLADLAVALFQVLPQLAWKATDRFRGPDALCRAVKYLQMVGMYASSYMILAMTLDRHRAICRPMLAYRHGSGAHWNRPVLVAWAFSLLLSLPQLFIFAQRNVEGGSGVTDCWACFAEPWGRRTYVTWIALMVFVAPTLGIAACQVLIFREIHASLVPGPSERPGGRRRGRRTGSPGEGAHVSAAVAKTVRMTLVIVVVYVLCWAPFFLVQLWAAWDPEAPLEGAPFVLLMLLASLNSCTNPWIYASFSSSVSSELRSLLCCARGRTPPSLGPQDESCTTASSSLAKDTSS
(§2) The default concentration for primary binding experiments was 10 μM.
(§3) See Examples for further details.

The next test concerns the target T1, OT receptor (Homo sapiens, UniProt P30559).
T1 sequence (P30559 1-389): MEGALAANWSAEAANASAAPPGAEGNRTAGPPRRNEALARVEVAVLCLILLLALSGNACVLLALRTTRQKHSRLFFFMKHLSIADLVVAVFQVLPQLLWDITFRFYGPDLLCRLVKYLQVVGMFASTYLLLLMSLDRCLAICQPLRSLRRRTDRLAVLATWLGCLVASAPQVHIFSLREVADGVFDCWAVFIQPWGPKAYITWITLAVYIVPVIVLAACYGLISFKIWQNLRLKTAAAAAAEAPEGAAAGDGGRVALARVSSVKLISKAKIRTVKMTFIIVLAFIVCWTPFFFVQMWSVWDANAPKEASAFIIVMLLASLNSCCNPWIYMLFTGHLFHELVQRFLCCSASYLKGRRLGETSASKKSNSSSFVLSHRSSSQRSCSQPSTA
The test can be described thus: OT receptor binding (primary binding at 10 μM and Ki). The settings on record: for inhibition at 10 µM: read-out: OT binding, mean % inhibition. As to the method: as §2, §3

The target in another test is T2, human V1a receptor (Homo sapiens, UniProt P37288).
T2 construct: expressed in transfected cells; host or cells: CHO cells (G418-selected hV1a cell line)
T2 sequence (P37288 whole entry): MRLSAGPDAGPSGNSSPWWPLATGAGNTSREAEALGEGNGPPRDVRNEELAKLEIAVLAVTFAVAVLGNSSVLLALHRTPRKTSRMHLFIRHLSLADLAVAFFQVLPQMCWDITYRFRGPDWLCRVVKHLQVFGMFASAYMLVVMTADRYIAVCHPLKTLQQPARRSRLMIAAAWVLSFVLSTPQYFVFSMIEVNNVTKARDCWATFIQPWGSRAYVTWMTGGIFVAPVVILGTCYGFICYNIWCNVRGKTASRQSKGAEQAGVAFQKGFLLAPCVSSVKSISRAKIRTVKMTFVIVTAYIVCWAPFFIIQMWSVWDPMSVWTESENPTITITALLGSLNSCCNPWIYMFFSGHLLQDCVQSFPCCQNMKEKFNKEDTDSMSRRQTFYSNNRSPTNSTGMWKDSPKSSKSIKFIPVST
The experiment in a line: Vasopressin V1a receptor binding assay (3H-AVP competition, CHO cells). To be noted: for inhibition at 10 µM: read-out: V1A binding, mean % inhibition. As to the method:
as §1, §2
Vasopressin V1a Receptor Binding Assay.
A cell line expressing the human Via receptor in CHO cells is used. The hV1a cDNA sequence is described by Thibonnier et al., (1994), and the expression method is the same as described by Morel et al. (1992). The hV1a cell line is grown in alpha-MEM with 10% fetal bovine serum and 250 ug/ml G418 (Gibco, Grand Island, N.Y., USA). For competitive binding assay, hV1a cells are plated into 6-well culture plate at 1:10 dilution from a confluency flask, and maintained in culture for at least two days. Culture medium is then removed, cells washed with 2 ml binding buffer (35 mM Hepes, 0.25% BSA, 1× DMEM, PH=7.0). To each well, 990 μl binding buffer containing 1 nM 3H-AVP is added, followed by 10 μl series diluted Example compounds dissolved in DMSO. All incubations are done in triplicate and dose-inhibition curves consisting of total binding (DMSO) and 5 concentrations (0.1, 1.0, 10, 100, and 1000 nM) of test agents encompassing the IC50. 100 nM cold AVP (Sigma) is used to assess non-specific binding. Cells are incubated for 45 minutes at 37° C., assay mixture is removed and each well is washed three times with PBS (pH=7.4). 1 ml 2% SDS was added per well, plates were let sit for 30 minutes. The whole content of a well is transferred to a scintillation vial. Each well is rinsed with 0.5 ml PBS which is then added to the corresponding vial. Scintillation fluid (Ecoscint) is then added at 3 ml per vial. Samples are counted in a liquid scintillation counter (Beckman LS3801). IC50 values are calculated by Prism Curve fitting software.

As usually defined, the inhibition is the change of the read-out against control, counted positive when it falls. Regarding `CCN(C(=O)C1CCN(C(=O)OCc2ccccc2)CC1)c1ccc(OC)cc1` [Compound 18], the inhibition at 10 µM on V2 receptor worked out at 12.8%; at OT receptor, 2.8%; on human V1a receptor it was 19%.

For the compound `COc1ccc(NC(=O)N2CCN(c3ccccc3C)CC2)cc1` [Compound 1], the inhibition at 10 µM amounted to 12.8% on OT receptor (at 10 μM) and 34.1% on human V1a receptor.

The Ki is the equilibrium dissociation constant of an inhibitor or competing ligand from its target. Consider `COc1ccccc1N1CCN(C(=O)N(CC2CC2)c2ccc(OC(F)(F)F)cc2)CC1` [Compound 32], for which the Ki at V2 receptor stood at 1700 nM; on OT receptor (read-out: OT binding Ki), 2.3 nM; on human V1a receptor it was 11 nM.

Regarding `COCCN(C(=O)N1CCN(c2ccccc2C)CC1)c1ccc(OC)cc1` [Compound 4], on V2 receptor (at 10 μM), the inhibition at 10 µM amounted to 24.5%. Besides, the Ki was 21 nM at OT receptor (read-out: OT binding Ki) and 10 nM on human V1a receptor.

Regarding `COc1ccc(N(CC2CC2)C(=O)N2CCN(c3ccccc3C(F)(F)F)CC2)cc1` [Compound 30], the Ki at V2 receptor was found to be 75 nM; at OT receptor (read-out: OT binding Ki), 2.3 nM; on human V1a receptor it was 11 nM.

Consider `CCN(C(=O)N1CCN(c2ncccc2C#N)CC1)c1ccc(OC)cc1` [Compound 19], for which the inhibition at 10 µM at V2 receptor (at 10 μM) amounted to 5.7%. Also, the inhibition constant Ki was 757 nM at OT receptor (read-out: OT binding Ki) and 880 nM on human V1a receptor.

Take `CCN(C(=O)N1CCN(c2ccccc2C)CC1)c1ccc(OC)cc1` [Compound 2]: at V2 receptor (at 10 μM), the inhibition at 10 µM was 33.6%. The Ki on OT receptor (read-out: OT binding Ki) was determined as 13 nM; on human V1a receptor, 10 nM.

On to `CCN(C(=O)N1CCN(Cc2ccccc2)CC1)c1ccc(OC)cc1` [Compound 8], for which the Ki at OT receptor (read-out: OT binding Ki) was 1180 nM. Further, the inhibition at 10 µM at human V1a receptor was 35.1%.

In the case of `CCN(C(=O)N1CCCN(c2ncccc2C(F)(F)F)CC1)c1ccc(OC)cc1` [Compound 20], the inhibition at 10 µM at V2 receptor (at 10 μM) is 33%. For the same compound, the Ki at OT receptor (read-out: OT binding Ki) was 329 nM; at human V1a receptor it was 851 nM.

As to `CCN(C(=O)C1CCN(c2ncccc2C(F)(F)F)CC1)c1ccc(OC)cc1` [Compound 24], the inhibition at 10 µM on V2 receptor (at 10 μM) worked out at 23.3%. Moreover, the Ki on OT receptor (read-out: OT binding Ki) was determined as 265 nM; on human V1a receptor, 1170 nM.

`O=C(OCc1ccccc1)N1CCC(C(=O)N(CC2CC2)CC2CCCO2)CC1` (stereo not shown) [Compound 15]: the inhibition at 10 µM is 12.8% at V2 receptor (at 10 μM), 2.8% at OT receptor (at 10 μM) and 19% at human V1a receptor.

As to `CCN(C(=O)N1CCN(c2ncccn2)CC1)c1ccc(OC)cc1` [Compound 22], the inhibition at 10 µM was determined as 6.6% at V2 receptor (at 10 μM) and 27.7% at OT receptor (at 10 μM). Moreover, the Ki at human V1a receptor (read-out: V1A binding Ki) came out at 1590 nM.

Turning to `CCN(C(=O)N1CCN(c2ncccc2C)CC1)c1ccc(OC)cc1` [Compound 21], the inhibition at 10 µM at V2 receptor (at 10 μM) is 24.3%. Besides, the results for the Ki on OT receptor (read-out: OT binding Ki) and on human V1a receptor were 204 nM and 116 nM, respectively.

For the compound `Cc1ccccc1N1CCN(C(=O)N(CC2CC2)c2ccc(OC(F)(F)F)cc2)CC1` [Compound 29], the Ki was found to be 159 nM on V2 receptor, 61 nM at OT receptor (read-out: OT binding Ki) and 12 nM at human V1a receptor.

Regarding `COc1ccccc1N(CC1CC1)C(=O)N1CCN(c2ccccc2C)CC1` [Compound 28], the Ki at V2 receptor was found to be 5010 nM; at OT receptor (read-out: OT binding Ki), 51 nM; at human V1a receptor, 107 nM.

Regarding `Cc1ccc(N(CC2CC2)C(=O)N2CCN(c3ccccc3C)CC2)cc1` [Compound 26], the Ki came out at 1860 nM on V2 receptor, 4.8 nM on OT receptor (read-out: OT binding Ki) and 3 nM on human V1a receptor.

Regarding `CCN(C(=O)N1CCN(C(=O)OC(C)(C)C)CC1)c1ccc(OC)cc1` [Compound 10], the inhibition at 10 µM at OT receptor (at 10 μM) was 17.1%; on human V1a receptor, 2.2%.

For `Cc1ccccc1N1CCN(C(=O)N(CC2CC2)c2ccc(Cl)cc2)CC1` [Compound 27], the figures for the Ki on V2 receptor, at OT receptor (read-out: OT binding Ki) and at human V1a receptor were 3780 nM, 2.3 nM and 1 nM, respectively.

On to `CCN(C(=O)N1CCN(C(=O)c2ccccc2)CC1)c1ccc(OC)cc1` [Compound 9], for which the inhibition at 10 µM on OT receptor (at 10 μM) is 22.3%.

For the compound `CCN(C(=O)N1CCN(c2ncccc2C(F)(F)F)CC1)c1ccc(OC)cc1` [Compound 6], the inhibition at 10 µM on V2 receptor (at 10 μM) is 33%. For the same compound, the Ki was 45 nM at OT receptor (read-out: OT binding Ki) and 113 nM on human V1a receptor.

Turning to `COC(=O)CC(NC(=O)OC(C)(C)C)C(=O)N1CCN(c2ccccc2C)CC1` (stereo not shown) [Compound 12], the inhibition at 10 µM at OT receptor (at 10 μM) turned out to be 10.6%.

Take `COc1ccc(N(CC2CC2)C(=O)C2CCN(Cc3ccccc3C(F)(F)F)C2)cc1` (stereo not shown) [Compound 34]: the Ki is 542 nM on V2 receptor, 24.5 nM on OT receptor and 19 nM at human V1a receptor.

On to `Cc1cc(-c2nnc(C)n2-c2ccccc2)ccc1CNC(=O)N1CCN(Cc2cc(O)cc(O)c2)CC1` [Compound 11], for which the inhibition at 10 µM at OT receptor (at 10 μM) turned out to be 14.8%.

`COc1ccc(N(CC2CC2)C(=O)N2CCN(c3cc(Cl)ccc3C)CC2)cc1` [Compound 31]: the Ki came to 7340 nM on V2 receptor, 6 nM at OT receptor (read-out: OT binding Ki) and 5 nM at human V1a receptor.

As to `COc1ccc(N(CC2CC2)C(=O)C2CCN(Cc3ccccc3Cl)C2)cc1` (stereo not shown) [Compound 35], the inhibition at 10 µM at V2 receptor (at 10 μM) was < 50%. The Ki at OT receptor (read-out: OT binding Ki) is 37.4 nM; at human V1a receptor, 71 nM.

For `CCN(C(=O)N1CCN(c2ncccc2Cl)CC1)c1ccc(OC)cc1` [Compound 16], on V2 receptor (at 10 μM), the inhibition at 10 µM turned out to be 12.7%. For the same compound, the Ki at OT receptor (read-out: OT binding Ki) was 2320 nM; at human V1a receptor, 1160 nM.

As to `COc1ccc(N(CC2CC2)C(=O)N2CCN(c3ccccc3C)CC2)cc1` [Compound 3], the Ki stood at 708 nM at V2 receptor, 1 nM at OT receptor (read-out: OT binding Ki) and 0.9 nM at human V1a receptor.

As to `COc1ccc(N(CC2CC2)C(=O)N2CCN(c3ncc(Cl)cc3Cl)CC2)cc1` [Compound 33], the Ki at V2 receptor came to 205 nM; on OT receptor (read-out: OT binding Ki), 4.1 nM; on human V1a receptor it was 3 nM.

`Cc1cc(C(=O)N(CC2CC2)CC2CCCO2)ccc1CNC(=O)N1CCN(Cc2cc(O)cc(O)c2)CC1` (stereo not shown) [Compound 13]: the inhibition at 10 µM turned out to be 13.6% on V2 receptor (at 10 μM) and 16.1% at OT receptor (at 10 μM).

Regarding `COc1ccc(-n2c(C)nnc2-c2ccc(CNC(=O)N3CCN(Cc4cc(O)cc(O)c4)CC3)c(C)c2)cn1` [Compound 14], the inhibition at 10 µM turned out to be 5.8% on V2 receptor (at 10 μM) and 19.6% at OT receptor (at 10 μM).

For `CCN(C(=O)N1CCN(C(=O)C23CC4CC(CC(C4)C2)C3)CC1)c1ccc(OC)cc1` [Compound 25], the inhibition at 10 µM was 40.4% on V2 receptor (at 10 μM) and 40.7% at OT receptor (at 10 μM). Besides, the Ki on human V1a receptor (read-out: V1A binding Ki) was found to be 3880 nM.

On to `CCN(C(=O)N1CCN(c2ccccn2)CC1)c1ccc(OC)cc1` [Compound 17], for which the inhibition at 10 µM at V2 receptor (at 10 μM) is 17.9%. The Ki amounted to 118 nM at OT receptor (read-out: OT binding Ki) and 79 nM at human V1a receptor.

`Cc1ccccc1N1CCN(C(=O)N(CC2CC2)CC2CCCO2)CC1` (stereo not shown) [Compound 5]: the inhibition at 10 µM at V2 receptor (at 10 μM) stood at 17.7%. Further, the Ki is 326 nM at OT receptor (read-out: OT binding Ki) and 785 nM on human V1a receptor.
